Measured values published in patent US20110294897A1, “Treating Xerophthalmia With Compounds Increasing Meibomian Gland Secretion” (Bridge Pharma, Inc., priority 2009, published 2011).

Experiments:
[1] = tested on: Meibomian gland secretion; assay: Meibomian gland secretion in vivo (Meibometer), other agonists
Protocol: Meibomian gland secretion was measured with a Meibometer (Courage-Khazaka Electronic GmbH, 50829 Cologne) and was increased in vivo as described in Examples 6 and 7, hereinafter.

solubility in water = type: physicochemical
human β3 receptors = molecular target: T1, human β3 receptors (Homo sapiens, UniProt P13945); assay: human β3 adrenergic receptor binding, [125I]CYP
T1 construct: expressed in transfected cells; host or cells: SK-N-MC cells
T1 sequence (P13945 whole entry): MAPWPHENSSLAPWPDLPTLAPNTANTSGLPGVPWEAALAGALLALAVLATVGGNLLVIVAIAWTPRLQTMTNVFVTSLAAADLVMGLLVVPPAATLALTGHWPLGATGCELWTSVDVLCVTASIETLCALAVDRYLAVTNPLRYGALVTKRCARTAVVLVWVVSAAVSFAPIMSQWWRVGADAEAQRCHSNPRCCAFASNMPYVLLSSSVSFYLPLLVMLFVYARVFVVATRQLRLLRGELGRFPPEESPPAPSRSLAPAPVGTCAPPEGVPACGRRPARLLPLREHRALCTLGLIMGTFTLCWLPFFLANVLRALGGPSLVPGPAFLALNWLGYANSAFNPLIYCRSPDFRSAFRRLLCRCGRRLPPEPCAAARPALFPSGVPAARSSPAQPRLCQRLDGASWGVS
Text: The specific ligand binding to the receptors is defined as the difference between the total binding and the nonspecific binding determined in the presence of an excess of unlabelled ligand.

intraocular pressure [2] = assay: night-time intraocular pressure in Dutch-Belted rabbits; type: in vivo, rabbit; details: for increase of IOP: night-time IOP, ocular instillation
Protocol: Intraocular pressure (IOP) in rabbits is considerably higher during the night than during the day. The present experiments were conducted in Dutch-Belted rabbits in which IOP was higher during daytime as a consequence of switching the night/day cycle by exposing the animals to 12 hours of light during the night and 12 hours of darkness during daytime. […]

intraocular pressure [3] = assay: intraocular pressure in rabbits with glucose-elevated IOP; type: in vivo, rabbit; details: 10 μL instilled, 12-15 minutes after dosing
Protocol: Intraocular pressure (IOP) was increased in conscious rabbits by intravenous injections of glucose. The test compound was administered by instillation into the conjunctival sac immediately after the glucose injection and all measurements were made approximately 12-15 minutes after dosing. […] Thus, 10 μL of solutions containing 3.5 or 7.0 or 14.0 mg/ml in Tears Naturale® were instilled into the conjunctival sac. Tears Naturale® was used as control solution. TOP was measured using a manometrically calibrated BIO-RAD Digilab pneumatonometer. Tetracaine (10 μl, 0.5%) was applied to the cornea before the IOP measurements. N=7 Dutch Belted rabbits/group (2-4 kg; M and F).

intraocular pressure [4] = assay: normal intraocular pressure in Dutch-Belted rabbits; type: in vivo, rabbit; details: 4.1% in saline, twice daily for 5 days
Protocol: Intraocular pressure was measured twice daily using the methodology stated above.

[5] = tested on: eyes of New Zealand White rabbits; assay: ocular irritation, Draize scoring in New Zealand White rabbits
Protocol: As a vehicle control 0.1 ml of 0.9% sodium chloride for injection (B. Braun; Lot No. J9A692) was instilled in the conjunctival sac of the left eye of all the rabbits. […] Draize scoring was assessed 30 minutes, 4 hours and 24 hours after the instillations of the placebo control (saline) and the test article solutions.
The grades of ocular reaction (conjunctivae, cornea, and iris) were determined at each examination.

[6] = tested on: Meibomian gland secretion; assay: Meibomian lipid secretion (Meibometer) after ocular instillation in conscious beagle dogs; type: in vivo, dog; details: Day 3, 4.0 percent in saline, single eye drops three times daily; vehicle 174 MU
Protocol: A Meibometer was used to measure the delivery rate of lipids from the Meibomian glands. The measurements were performed in conscious beagle dogs and the test methodology is described above (Example 6). In these experiments, Meibomian secretion was measured in saline vehicle-treated dogs and in groups of dogs that were treated with a test article, daily at about 9 AM, 11 AM and 1 PM with single eye drops. […] Both eyes were treated and a total of six dogs were used for each treatment group.

lacrimal gland secretion = assay: lacrimal secretion (Schirmer) after intravenous administration in conscious rabbits; type: in vivo, rabbit
Protocol: In short, Schirmer strips are strips of filter papers, which are in part inserted into the conjunctival sac and in part hanging out from the conjunctival sac. The Schirmer strips absorb the watery tear fluid as can be observed as wetting of the strips. The length of the wetted area is measured and is an indicator of the amount of available tear fluid in the conjunctival sac. […] The average pre-dose value (from three Schirmer readings in each animal) was compared with the average of four readings during the infusions of R-salbutamol.

[7] = tested on: Meibomian gland secretion; assay: Meibomian gland secretion (Meibometer) after intravenous infusion in conscious beagle dogs; type: in vivo, dog; details: for Meibomian gland secretion: pre-infusion 248±9 MU
Protocol: . A Meibometer (MB550, Courage-Khazaka GmbH, Koln, Germany) was used to measure the delivery rate of lipids from the Meibomian glands. The measurements were performed in conscious beagle dogs. To reduce variability all studies were performed by a single individual, who had obtained extensive training with the instrumentation and was used to the handling of conscious laboratory dogs. The methodology has been described by Benz, P., et al. 2008, which publication is hereby included by reference, although new and improved computer software was used in the present studies.

patients = details: according to the manufacturer; cited from earlier work

With `CC(CCc1ccc(O)cc1)NCC(O)c1ccc(O)cc1` (racemic) [RR/SR ractopamine, ractopamine] as the compound, how does the “Meibomian gland secretion in vivo” value [1] read?
Its value is “ability to increase Meibomian gland secretion in vivo”.

With `CC(C)(C)NCC(O)c1ccc(O)c(CO)c1` (racemic) [salbutamol, a′[(tert-butylamino)methyl]-4-hydroxy-m-xylene-a,a′-diol] as the compound, how does the solubility in water (solubility in water) read?
The solubility in water was “readily soluble in water”.

And the “affinity for beta-3 receptors” value (human β3 receptors)?
Its value is “practically no affinity”.

And the “Δ mmHg, nighttime intraocular pressure” value (intraocular pressure [2]; RS-Hi 2.0%, 1 PM)?
The value was −7 mmHg.

And the “Δ mmHg, nighttime intraocular pressure” value (intraocular pressure [2]; RS-Hi 2.0%, 3 PM)?
Its value is −4 mmHg.

And the “Δ mmHg, nighttime intraocular pressure” value (intraocular pressure [2]; RS-Hi 2.0%, 5 PM)?
Its value is −0 mmHg.

And the “Δ mmHg, nighttime intraocular pressure” value (intraocular pressure [2]; RS-Hi 2.0%, 9:00 (instillation))?
Its value is 0 mmHg.

And the “Δ mmHg, nighttime intraocular pressure” value (intraocular pressure [2]; RS-Hi 2.0%, 9:30)?
Its value is −9 mmHg.

What about the “Δ mmHg, nighttime intraocular pressure” value (intraocular pressure [2]; RS-Hi 2.0%, 10 AM) of the same compound?
The value was −9 mmHg.

What about the “Δ mmHg, nighttime intraocular pressure” value (intraocular pressure [2]; RS-Hi 2.0%, 11 AM) of the same compound?
The value was −9 mmHg.

What about the “Δ mmHg, nighttime intraocular pressure” value (intraocular pressure [2]; RS-Lo 0.67%, 1 PM) of the same compound?
Its value is −5 mmHg.

What about the “Δ mmHg, nighttime intraocular pressure” value (intraocular pressure [2]; RS-Lo 0.67%, 3 PM) of the same compound?
The value was −2 mmHg.

What about the “Δ mmHg, nighttime intraocular pressure” value (intraocular pressure [2]; RS-Lo 0.67%, 5 PM) of the same compound?
Its value is −0.5 mmHg.

And the “Δ mmHg, nighttime intraocular pressure” value (intraocular pressure [2]; RS-Lo 0.67%, 9:00 (instillation))?
The value was 0 mmHg.

And the “Δ mmHg, nighttime intraocular pressure” value (intraocular pressure [2]; RS-Lo 0.67%, 9:30)?
Its value is −6 mmHg.

And the “Δ mmHg, nighttime intraocular pressure” value (intraocular pressure [2]; RS-Lo 0.67%, 10 AM)?
Its value is −6 mmHg.

And the “Δ mmHg, nighttime intraocular pressure” value (intraocular pressure [2]; RS-Lo 0.67%, 11 AM)?
The value was −6 mmHg.

And the “increase of IOP” value (intraocular pressure [2])?
Its value is “Neither racemic nor isomeric salbutamol increased IOP”.

For `CC(C)(C)NC[C@H](O)c1ccc(O)c(CO)c1` [R-salbutamol, R(−)-isomer of a′[(tert-butylamino)methyl]-4-hydroxy-m-xylene-a,a′-diol], which “intraocular pressure lowered (vs control animals), mean±SEM” value (intraocular pressure [3]; 3.5 mg/ml) is on record?
The value was 5.5±1.3 mmHg.

What about the “intraocular pressure lowered (vs control animals), mean±SEM” value (intraocular pressure [3]; 7.0 mg/ml) of the same compound?
Its value is 6.7±1.5 mmHg.

And the “intraocular pressure lowered (vs control animals), mean±SEM” value (intraocular pressure [3]; 14.0 mg/ml)?
The value was 5.8±1.3 mmHg.

What about the “concentration dissolved in water” value (solubility in water) of the same compound?
Its value is “in excess of five percent by weight”.

What about the solubility in water (solubility in water) of the same compound?
Its solubility in water is “readily soluble in water”.

What about the “increase in IOP” value (intraocular pressure [4]) of the same compound?
Its value is “No increase in IOP was observed”.

What about the “affinity for beta-3 receptors” value (human β3 receptors) of the same compound?
Its value is “practically no affinity”.

And the “Mean Post-Instillation Irritation Score” value ([5]; 0.1% in saline, 4 Hours)?
Its value is 0.

And the “Mean Post-Instillation Irritation Score” value ([5]; 0.1% in saline, 24 Hours)?
Its value is 0.

And the “Mean Post-Instillation Irritation Score” value ([5]; 0.1% in saline, 30 Minutes)?
Its value is 0.

And the “Mean Post-Instillation Irritation Score” value ([5]; 0.5% in saline, 4 Hours)?
The value was 0.

What about the “Mean Post-Instillation Irritation Score” value ([5]; 0.5% in saline, 24 Hours) of the same compound?
The value was 0.

And the “Mean Post-Instillation Irritation Score” value ([5]; 0.5% in saline, 30 Minutes)?
The value was 0.

And the “Mean Post-Instillation Irritation Score” value ([5]; 5.0% in saline, 4 Hours)?
The value was 0.

What about the “Mean Post-Instillation Irritation Score” value ([5]; 5.0% in saline, 24 Hours) of the same compound?
Its value is 0.

What about the “Mean Post-Instillation Irritation Score” value ([5]; 5.0% in saline, 30 Minutes) of the same compound?
The value was 0.

What about the ocular irritancy ([5]; single-dose, in saline, concentrations up to 5%) of the same compound?
Its ocular irritancy is “not irritants”.

What about the “Meibomian secretion, mean” value [6] of the same compound?
The value was 304 MU.

And the “wetting of the Schirmer strips” value (lacrimal gland secretion; during iv infusion 30 μg/kg/min for 20 min, predose 20.3±1.6, six eyes)?
The value was 33.8±2.3 millimeter.

What about the “increased wetting of the Schirmer strips” value (lacrimal gland secretion; iv 30 μg/kg/min, versus predose) of the same compound?
The value was “approximately 66%”.

What about the Meibomian gland secretion ([7]; during twenty-minute iv infusion 30 μg/kg/min) of the same compound?
The Meibomian gland secretion was 235±23 MU.

And the “difference between pre-infusion and post-infusion secretion” value ([7]; iv 30 μg/kg/min for 20 min)?
Its value is “approximately 27%”.

What about the Meibomian gland secretion ([7]; ten minutes post-infusion) of the same compound?
Its Meibomian gland secretion is 316±26 MU.

What about the “Δ mmHg, nighttime intraocular pressure” value (intraocular pressure [2]; R-Hi 1.0%) of the same compound?
Its value is −11 mmHg.

And the “Δ mmHg, nighttime intraocular pressure” value (intraocular pressure [2]; R-Hi 1.0%, 1 PM)?
The value was −10 mmHg.

What about the “Δ mmHg, nighttime intraocular pressure” value (intraocular pressure [2]; R-Hi 1.0%, 3 PM) of the same compound?
Its value is −3 mmHg.

And the “Δ mmHg, nighttime intraocular pressure” value (intraocular pressure [2]; R-Hi 1.0%, 5 PM)?
The value was −2 mmHg.

What about the “Δ mmHg, nighttime intraocular pressure” value (intraocular pressure [2]; R-Hi 1.0%, 9:00 (instillation)) of the same compound?
The value was 0 mmHg.

What about the “Δ mmHg, nighttime intraocular pressure” value (intraocular pressure [2]; R-Hi 1.0%, 9:30) of the same compound?
The value was −7 mmHg.

What about the “Δ mmHg, nighttime intraocular pressure” value (intraocular pressure [2]; R-Hi 1.0%, 10 AM) of the same compound?
Its value is −8 mmHg.

What about the “Δ mmHg, nighttime intraocular pressure” value (intraocular pressure [2]; R-Lo 0.33%, 1 PM) of the same compound?
Its value is −4 mmHg.

What about the “Δ mmHg, nighttime intraocular pressure” value (intraocular pressure [2]; R-Lo 0.33%, 3 PM) of the same compound?
The value was −3 mmHg.

And the “Δ mmHg, nighttime intraocular pressure” value (intraocular pressure [2]; R-Lo 0.33%, 5 PM)?
Its value is −2.5 mmHg.

And the “Δ mmHg, nighttime intraocular pressure” value (intraocular pressure [2]; R-Lo 0.33%, 9:00 (instillation))?
Its value is 0 mmHg.

And the “Δ mmHg, nighttime intraocular pressure” value (intraocular pressure [2]; R-Lo 0.33%, 9:30)?
The value was −7 mmHg.

And the “Δ mmHg, nighttime intraocular pressure” value (intraocular pressure [2]; R-Lo 0.33%, 10 AM)?
The value was −9 mmHg.

And the “Δ mmHg, nighttime intraocular pressure” value (intraocular pressure [2]; R-Lo 0.33%, 11 AM)?
The value was −9 mmHg.

And the “increase of IOP” value (intraocular pressure [2])?
Its value is “Neither racemic nor isomeric salbutamol increased IOP”.

For `CC(C)(C)NC[C@@H](O)c1ccc(O)c(CO)c1` [S-salbutamol], which “Meibomian gland secretion in vivo” value [1] is on record?
The value was “may also increase Meibomian gland secretion”.

Which “patients with epinephrine intolerance” value (patients) does the source give for `CNCC(O)c1ccc(OC(=O)C(C)(C)C)c(OC(=O)C(C)(C)C)c1` (centres unmarked) [dipivefrin] here?
Its value is 3%.

For `CNC[C@H](O)c1ccc(O)c(O)c1` [epinephrine], which “patients with epinephrine intolerance” value (patients) is on record?
Its value is 55%.

Which results are given for `CC(C)(C)NC[C@H](O)COc1nsnc1N1CCOCC1` [timolol]?
intraocular pressure lowered (vs control animals), mean±SEM (intraocular pressure [3]; 3.5 mg/ml): 4.7±1.3 mmHg; intraocular pressure lowered (vs control animals), mean±SEM (intraocular pressure [3]; 7.0 mg/ml): 4.6±1.0 mmHg; intraocular pressure lowered (vs control animals), mean±SEM (intraocular pressure [3]; 14.0 mg/ml): 4.7±1.3 mmHg
